Our source for the TGI and GI50 values is PubChem BioAssay (NCI).

Values joined by “and” are separate entries in the source; they are usually repeats but may differ in a detail not shown here. Identical values can stand only once.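 Assay format: 96-well plates, 48-hour exposure. GI50 is the concentration that inhibits growth by half. TGI denotes the concentration required for complete inhibition of growth.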

Some test systems named below: COLO 205 colon; HCT-15 colon; HOP-92 NSCLC; IGROV1 ovarian; MOLT-4 leukemia; NCI-H226 lung; NCI-H460 lung; OVCAR-5 ovarian; SF-539 CNS; SNB-75 CNS.
Common to all, as to test: DTP human tumour cell line panel, 48 h

For `Cc1c2cc[n+](C)cc2c(COC2OC(CO)C(O)C2O)c2c3ccccc3n(C)c12` (stereo not drawn), the TGI with COLO 205 colon was over 100 µM; in the assay on HCT-15 colon it was over 100 µM; in the assay with HOP-92 NSCLC, over 100 µM; with IGROV1 ovarian it was over 100 µM; in the assay on MOLT-4 leukemia, over 100 µM; with NCI-H226 lung, over 94.1 µM. Moreover, the TGI is over 100 µM in the assay with NCI-H460 lung, over 100 µM in the assay with OVCAR-5 ovarian, over 100 µM with SF-539 CNS and 92.4 µM in the assay on SNB-75 CNS.
Regarding `COc1cc2c(cc1-c1c(C)noc1C)ncc1nc(C3CCCCC3)n(C3CCC(OC(F)F)CC3)c12` (stereo not drawn), the GI50 in the assay on HOP-92 NSCLC was 1.53 µM; with IGROV1 ovarian, 3.94 µM; in the assay with NCI-H460 lung it was 2.53 µM; in the assay on OVCAR-5 ovarian, 3 µM; in the assay on SNB-75 CNS, 0.511 µM. For the same compound, the TGI was 4.62 µM in the assay with HOP-92 NSCLC; over 100 µM in the assay with IGROV1 ovarian; over 100 µM in the assay with NCI-H460 lung; over 100 µM with OVCAR-5 ovarian; over 100 µM in the assay on SNB-75 CNS.
Take `CC(=O)O[C@H]1C(=O)[C@]2(C)[C@@H](OC(=O)OCC(O)CO)C[C@H]3OC[C@@]3(OC(C)=O)[C@H]2[C@H](OC(=O)c2ccccc2)[C@]2(O)C[C@H](OC(=O)[C@H](O)[C@@H](NC(=O)c3ccccc3)c3ccccc3)C(C)=C1C2(C)C` (stereo partly drawn): the TGI in the assay with COLO 205 colon is 0.683 µM; in the assay on HCT-15 colon it was 10.9 µM; with HOP-92 NSCLC, over 85.3 µM; in the assay on IGROV1 ovarian, over 57.7 µM; in the assay with MOLT-4 leukemia, 31.3 µM; in the assay with NCI-H460 lung it was 27.6 µM. Further, the values for the TGI with OVCAR-5 ovarian, with SF-539 CNS and with SNB-75 CNS were 20.9 µM, under 0.01 µM and under 0.01 µM, respectively.
`CC(=O)OC1CC2(O)C(CCC3(C)C(c4ccc(=O)oc4)CCC32O)C2(C)CCC(O)C=C12` (stereo not drawn): the TGI is 0.168 µM and 0.139 µM with COLO 205 colon; 0.209 µM and 0.147 µM with HCT-15 colon; 0.374 µM and 0.0869 µM with HOP-92 NSCLC; 0.351 µM and 0.242 µM with IGROV1 ovarian; 0.0054 µM in the assay with MOLT-4 leukemia; 0.184 µM and 0.183 µM in the assay with NCI-H226 lung. For the same compound, the TGI in the assay with NCI-H460 lung is 0.0271 µM and 0.0388 µM; in the assay on OVCAR-5 ovarian, 0.277 µM and 0.26 µM; with SF-539 CNS, 0.0383 µM and 0.0414 µM; with SNB-75 CNS, 0.188 µM and 0.116 µM. Moreover, the GI50 with HCT-15 colon is 0.0375 µM; in the assay on HOP-92 NSCLC, 0.0375 µM; in the assay on IGROV1 ovarian, 0.0375 µM; in the assay on NCI-H226 lung, 0.0808 µM; with NCI-H460 lung, 0.0375 µM; in the assay with OVCAR-5 ovarian it was 0.0738 µM. In addition, the GI50 with SF-539 CNS and in the assay on SNB-75 CNS was 0.0375 µM in each case.
Consider `CC(C)(C)CC(C)(C)Cc1ccc(OCCOCC[N+](C)(C)Cc2ccccc2)cc1`, for which the GI50 in the assay with HCT-15 colon is 14.4 µM; with HOP-92 NSCLC, 1.23 µM; in the assay with IGROV1 ovarian, 1.33 µM; in the assay on NCI-H226 lung, 1.79 µM; in the assay on NCI-H460 lung, 1.8 µM; in the assay on OVCAR-5 ovarian it was 3.86 µM. The figures for the GI50 in the assay on SF-539 CNS and with SNB-75 CNS were 1.7 µM and 1.63 µM, respectively. The TGI turned out to be 33.5 µM with HCT-15 colon; 2.56 µM in the assay on HOP-92 NSCLC; 2.86 µM with IGROV1 ovarian; 6.72 µM with NCI-H226 lung; 3.45 µM in the assay on NCI-H460 lung; 15.8 µM with OVCAR-5 ovarian. In addition, the results for the TGI with SF-539 CNS and with SNB-75 CNS were 3.21 µM and 3.47 µM, respectively.
With `Cc1c2cc[n+](C)cc2c(C)c2c1[nH]c1ccc(O)cc12`, the TGI in the assay on COLO 205 colon was over 91.9 µM; with HCT-15 colon, over 100 µM; with HOP-92 NSCLC it was 52.4 µM; with IGROV1 ovarian it was over 100 µM; in the assay on MOLT-4 leukemia it was 58.3 µM; in the assay with NCI-H226 lung, 16.6 µM. Also, the TGI is 24.7 µM in the assay with NCI-H460 lung, over 100 µM with OVCAR-5 ovarian, 75.2 µM with SF-539 CNS and 25.7 µM with SNB-75 CNS.
In the case of `CCOC(=O)c1c(NC(=S)NCc2ccccc2)sc2c1CCN(C)C2`, the TGI is over 100 µM in the assay on COLO 205 colon; over 100 µM with HCT-15 colon; over 100 µM in the assay with IGROV1 ovarian; 51 µM in the assay with MOLT-4 leukemia; over 100 µM in the assay on NCI-H226 lung; over 100 µM in the assay on NCI-H460 lung. For the same compound, the TGI in the assay on OVCAR-5 ovarian and in the assay with SF-539 CNS was over 100 µM throughout.
As for `O=c1c(-c2ccccc2)c[nH]c2cc([N+](=O)[O-])c(/C(Cl)=C/c3ccccc3)cc12`, the concentration for total growth inhibition (TGI) in the assay on COLO 205 colon was over 38.2 µM; with HCT-15 colon, over 47.1 µM; in the assay with HOP-92 NSCLC it was 10.6 µM; in the assay on IGROV1 ovarian, over 38.6 µM; with MOLT-4 leukemia, 24 µM; with NCI-H226 lung, 34 µM. The TGI with NCI-H460 lung was 44.8 µM; in the assay with OVCAR-5 ovarian it was over 59.5 µM; in the assay with SF-539 CNS, 27.7 µM; in the assay on SNB-75 CNS it was 24.1 µM.
In the case of `COc1cccc2c1C(=O)c1c(O)c3c(c(O)c1C2=O)C[C@@](O)(C(C)=O)C[C@@H]3OC1CC(N)C(O)C(C)O1` (stereo partly drawn), the TGI is 1.28 µM [middle of 6 runs] in the assay with COLO 205 colon and 8.07 µM [middle of 6 runs] in the assay with HCT-15 colon. For the same compound, the GI50 is under 0.0104 µM in the assay on HOP-92 NSCLC, under 0.0374 µM with IGROV1 ovarian and 0.0161 µM in the assay on SNB-75 CNS.
As to `CN1CCN(c2ccc3nc(-c4ccc(OCCCN5C(=O)c6cccc7cccc(c67)C5=O)cc4)[nH]c3c2)CC1`, the GI50 in the assay with COLO 205 colon was 4.53 µM; with HOP-92 NSCLC, 1.66 µM; in the assay on IGROV1 ovarian, 21.8 µM; in the assay with MOLT-4 leukemia, 2.06 µM; in the assay on NCI-H226 lung it was 19.8 µM; in the assay with OVCAR-5 ovarian, 1.89 µM. For the same compound, the TGI in the assay with COLO 205 colon was over 100 µM; in the assay on HOP-92 NSCLC, 3.29 µM; in the assay on IGROV1 ovarian, 66.1 µM; in the assay on MOLT-4 leukemia, 5.05 µM; in the assay on NCI-H226 lung, 51.2 µM; in the assay on OVCAR-5 ovarian it was 3.38 µM.

A word on the TGI: it is the concentration giving total growth inhibition. By GI50 is commonly meant the concentration at which growth is held to half of that of the control.
